Experimental data from patent US20260159519A1, “IMIDAZOPYRIDAZINE SUBSTITUTED BENZENE RING DERIVATIVE, PREPARATION METHOD, PHARMACEUTICAL COMPOSITION AND USE” (SHANGHAI SIMR BIOTECHNOLOGY CO., LTD., priority 2022, published 2026).

tested on: Chinese hamster ovary cells (CHO-WBL cells); test: In vitro micronucleus assay; type: cell-based; conditions: 3-hour treatment with S9, 3-hour and 24-hour treatment without S9; overall judgment
Source text: The experimental design is based on the experimental purpose and follows the following experimental design guidelines: • (1) OECD Guidelines for the Testing of Chemicals 487, In Vitro Mammalian Cell Micronucleus Test, revised in 2016; • (2) ICH S2 (R1): Guideline on Genotoxicity Testing and Data Interpretation for Pharmaceuticals Intended for Human Use, validated in November 2011.
Experimental system and selection rationale: Chinese hamster ovary cells (CHO-WBL cells) were used as an experimental system in this experiment. The cell line has a karyotype containing 21 chromosomes and a growth cycle of 12 to 13 hours. CHO-WBL cells were originally derived from Dr. S. Wolff at the University of California in San Francisco, USA, then cloned in the laboratory of Dr. A. Bloom at Columbia University in New York, and cloned again by Dr. S. Galloway at Litton Bionetics Laboratory in Maryland. The cell stock solution was stored in liquid nitrogen. The karyotype of each batch of cell stock solution was identified, and tests confirmed that it was free from mycoplasma contamination. The number of passages after cell cloning will not exceed 15. Chinese hamster ovary cells were chosen because the cell line is recommended for use in OECD Guidelines for the Testing of Chemicals 487 and has been proven to be sensitive to a variety of clastogens/aneugens (Marilyn J. et al., 2006).
Medium and cell growth conditions: Chinese hamster ovary cells were cultured in McCoy's 5A complete medium (McCoy's 5A complete medium supplemented with 10 vt % fetal bovine serum, 2 mM GlutaMAX™ medium, 100 units/mL penicillin, and 100 μg/mL streptomycin), and grown in a standard environment (a high-humidity incubator with a temperature of 37° C. and a CO2 concentration of 5%). The day before administration, CHO-WBL cells in exponential growth phase were inoculated onto an eight-well cell culture slide at a density of 8×10^3 cells/400 μL McCoy's 5A complete medium/well.
Metabolic activation system: The in vitro metabolic activation system (Maron and Ames, 1983) contains a rat liver microsomal homogenate induced by β-naphthoflavone and phenobarbital (referred to as S9) and an NADPH-generating system (i.e., NADP disodium and isocitric acid trisodium). S9 was purchased from CHI Scientific, Inc. and stored in a −75° C. refrigerator prior to use. Preparation method for S9 homogenate: Male Sprague Dawley rats were intraperitoneally injected with a single dose of p-naphthoflavone and phenobarbital, followed by material preparation.
Preparation of S9 metabolic activation system: NADP disodium salt and isocitric acid trisodium salt were first dissolved in serum-free medium to prepare a core solution, which was then filtered through a 0.22 µm filter to sterilize. Immediately before use, the S9 homogenate was thawed, and the components of the S9 metabolic activation system were mixed in the proportions shown in Table 2 below.
Dose exploration experiment: In the dose exploration experiment, 8 administration concentrations were established in each administration treatment series. For each concentration of the test substance, 1 well of cells was set up. According to the ICH S2 (R1) guidelines, when not limited by the solubility of the test substance in the solvent/medium or the cytotoxicity of the test substance, the recommended maximum concentration is 1 mM or 0.5 mg/mL, whichever is lower. However, when limited by solubility, the test maximum concentration is the minimum concentration at which a small amount of precipitate is visible in the medium under the microscope. To ensure that the upper limit of solubility in the medium can be reached, up to 4 concentrations with visible precipitate can be tested.

SMILES | Results of in vitro micronucleus assay
CCN1C(=O)COc2cc(-c3cc(-c4cnnc5c4ncn5CC)ccc3F)c(OC)cc21 [Example 31, 4-Ethyl-7-(5-(7-ethyl-7H-imidazo[4,5-c]pyridazin-4-yl)-2-fluorophenyl)-6-methoxy-2H-benzo[b][1,4]oxazin-3(4H)-one] | Negative
COc1cc2c(cc1-c1cc(-c3cnnc4c3ncn4C(C)C)ccc1F)OCC(=O)N2C [Example 36, 7-(2-Fluoro-5-(7-isopropyl-7H-imidazo[4,5-c]pyridazin-4-yl)phenyl)-6-methoxy-4-methyl-2H-benzo[b][1,4]oxazin-3(4H)-one] | Negative
CCn1cnc2c(-c3ccc(F)c(-c4cc5c(cc4OC)N(C)C(=O)CO5)c3)cnnc21 [Example 42, 7-(5-(7-Ethyl-7H-imidazo[4,5-c]pyridazin-4-yl)-2-fluorophenyl)-6-methoxy-4-methyl-2H-benzo[b][1,4]oxazin-3(4H)-one] | Negative
CCn1cnc2c(-c3ccc(F)c(-c4cc5oc(=O)n(C)c5cc4OC)c3)cnnc21 [Example 87, 6-(5-(7-Ethyl-7H-imidazo[4,5-c]pyridazin-4-yl)-2-fluorophenyl)-5-methoxy-3-methylbenzo[d]oxazol-2(3H)-one] | Negative
CCn1cnc2c(-c3ccc(F)c(-c4cc5c(cc4OC)N(C)C(=O)C5)c3)cnnc21 [Example 161, 5-(5-(7-Ethyl-7H-imidazo[4,5-c]pyridazin-4-yl)-2-fluorophenyl)-6-methoxy-1-methyldihydro-2-one] | Negative
